# Where two headings read alike, the source gives them in different places.
# Key:
# [1] = Metabolite profiling in plasma, bile, urine, feces; assay type: in vivo, SD rats; details: for share of plasma AUC0-96h: [14C] 3 mg/100 µCi/kg i.v.; for amount in bile, % of administered dose: 0 to 72 hours; for amount in feces, % of administered dose / amount in urine, % of administered dose: 0 to 168 hours
# Description: Following a single intravenous administration of [14C] Purinostat Mesylate at a dose of 3 mg/100 µCi/kg in male and female rats, a total of 14 metabolites were identified, in addition to the parent compound. These were designated as M382, M396, M474, M475, M490, M516, M517, M532, M546, M548, M558, M666, M708a, and M708b. Among these, M382 is an acetylated product of the parent drug after N-dealkylation, M396 is a carboxylic acid derivative of M382, M474 is a reduction product of the parent drug, M475 is a hydroxylated product derived from the amino conversion of M474, M490 is a mono-oxidation product of M474, M516 is an acetylated product of M474, M517 is a hydroxylated product derived from the amino conversion of M516, M532 is an acetylated product of the parent drug, M546 is a methylated product of M532, M548 is a dioxidation product of M516, M558 is a glucuronic acid conjugate of M382, M666 is a glucuronic acid conjugate of the parent drug, M708a is a mono-oxidation glucuronic acid conjugate of M516, and M708b is a glucuronic acid conjugate of M532.
# [2] = system: 89 kinases; assay: Kinase panel; assay type: biochemical; details: 1 μM
# Description: The prototype drug Purinostat was tested for its inhibitory activity against 89 kinases that are strongly associated with tumors.
# [3] = system: r/r DLBCL; details: cited from earlier work
# [4] = system: HDAC IIa/IV; set-up: method as in PMID 27186676, PMID 31439580; details: range over isoforms; read-out: IC50 against HDAC IIa/IV; cited from earlier work
# [5] = system: MM1S xenograft; assay: MM1S xenograft mouse model; assay type: in vivo, NOD-SCID mice
# [6] = system: HDAC I/IIb; set-up: method as in PMID 27186676, PMID 31439580; details: range over isoforms; read-out: IC50 against HDAC I/IIb; cited from earlier work
# [7] = system: BCR-ABL positive B-ALL PDX; assay: PDX model of clinical B-ALL patient; assay type: in vivo, NOD/SCID mice; details: positive control
# Text: A clinical sample from a B-ALL patient was obtained, characterized by BCR-ABL positivity and relapse after first-line treatment.
# [8] = system: human multiple myeloma RPMI-8226; assay type: in vivo
# [9] = system: mouse B-cell lymphoma; assay: Ighmyc transgenic B-cell lymphoma model, survival; assay type: in vivo, mice; details: positive control groups
# [10] = target: human ether-à-go-go-related gene (hERG) channel (Homo sapiens, UniProt Q12809); assay: hERG inhibition; assay type: biochemical
# Chain of human ether-à-go-go-related gene (hERG) channel (Q12809 whole entry): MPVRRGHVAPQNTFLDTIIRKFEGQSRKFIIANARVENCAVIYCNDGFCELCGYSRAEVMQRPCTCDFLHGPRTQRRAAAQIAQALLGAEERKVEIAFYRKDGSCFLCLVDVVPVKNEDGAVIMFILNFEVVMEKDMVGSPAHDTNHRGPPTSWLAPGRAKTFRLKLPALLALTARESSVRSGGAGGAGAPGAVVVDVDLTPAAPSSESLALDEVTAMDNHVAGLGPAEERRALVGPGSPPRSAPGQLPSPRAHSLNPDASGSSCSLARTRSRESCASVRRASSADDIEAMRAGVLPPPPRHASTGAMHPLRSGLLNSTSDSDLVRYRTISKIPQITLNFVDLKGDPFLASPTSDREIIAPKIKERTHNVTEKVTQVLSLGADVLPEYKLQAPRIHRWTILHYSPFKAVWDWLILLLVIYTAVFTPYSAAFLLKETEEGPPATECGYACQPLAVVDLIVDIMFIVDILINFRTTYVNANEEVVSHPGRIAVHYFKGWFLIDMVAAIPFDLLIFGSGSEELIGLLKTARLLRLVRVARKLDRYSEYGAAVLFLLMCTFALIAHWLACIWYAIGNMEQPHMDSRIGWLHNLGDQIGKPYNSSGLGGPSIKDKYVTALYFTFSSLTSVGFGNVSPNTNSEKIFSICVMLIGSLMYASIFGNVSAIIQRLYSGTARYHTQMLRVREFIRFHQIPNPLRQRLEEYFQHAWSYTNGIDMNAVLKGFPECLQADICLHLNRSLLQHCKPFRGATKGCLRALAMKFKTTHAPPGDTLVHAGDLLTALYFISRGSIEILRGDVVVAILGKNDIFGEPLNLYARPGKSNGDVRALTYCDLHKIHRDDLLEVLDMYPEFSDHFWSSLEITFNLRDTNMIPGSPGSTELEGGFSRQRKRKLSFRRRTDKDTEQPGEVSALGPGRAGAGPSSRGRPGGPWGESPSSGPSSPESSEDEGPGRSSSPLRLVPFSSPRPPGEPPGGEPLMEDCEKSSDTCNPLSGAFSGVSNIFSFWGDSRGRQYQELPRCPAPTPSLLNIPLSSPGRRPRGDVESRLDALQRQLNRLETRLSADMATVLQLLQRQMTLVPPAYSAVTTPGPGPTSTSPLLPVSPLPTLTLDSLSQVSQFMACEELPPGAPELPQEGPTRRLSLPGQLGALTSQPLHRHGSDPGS
# [11] = system: r/r MM; details: cited from earlier work
# [12] = system: diffuse large B-cell lymphoma (DLBCL) cells from patient C; assay: Cell apoptosis analysis, primary cells; assay type: cell-based, human; details: 5 nM, 48 h
# Description: (§1) CD138^+, CD38^+, or CD20^+ primary cells were obtained from plasma cell leukemia patients and DLBCL patients who had relapsed after multiple drug therapies. These patient samples were sourced from West China Hospital and had been approved by the clinical ethics committee of West China Hospital of Sichuan University (Chengdu, China). The clinical information of these patients was summarized in Supplementary Table 2. The patient primary cells were cultured in 6-well plates at a density of 1×10^6 cells/mL, and treated with control, PM, panobinostat, Pom and DXM at indicated concentrations for 48 hours. CD138, CD38, and CD20 monoclonal antibodies, Annexin V-APC and 7AAD apoptosis detection kits were used following the manufacturer’s instructions. The apoptosis cells were analyzed by flow cytometry (Thermo, AttuneTMNxT).
# [13] = system: primary MM cells from relapsed patients A and B; assay: Cell apoptosis analysis, primary cells; assay type: cell-based, human; details: 5 nM, 48 h
# Description: as §1
# [14] = system: OPM2; assay: Cell viability CCK8; assay type: cell-based; details: Homo sapiens, OPM-2; OPM2, 72 h; no unit in table; read-out: Antiproliferative activity IC50
# Description: (§2) PM, panobinostat, Pom and DXM were dissolved in DMSO and stored at -20°C freezer. Cells were seeded at a density of 1.0-3.0 × 10^4 cells/well/100 μL in 96-well plates. After overnight incubation, cells were treated with the drug-containing culture medium for 24, 48, or 72 hours, and cell viability was measured using CCK8 (Oriscience, Chengdu, China) at the indicated time points with Biotek Cytation 3 at a wavelength of 450 nm. The IC50 values were calculated using GraphPad Prism 9.4.1, and Calcusyn 2.0 software was employed to calculate the CI values.
# [15] = system: Daudi; assay: Cell viability CCK8; assay type: cell-based; details: Homo sapiens, 72 h, no unit in table, read-out: Antiproliferative activity IC50
# Description: as §2
# [16] = system: Karpas299; assay: Cell viability CCK8; assay type: cell-based; details: Homo sapiens, KARPAS-299; Karpas299, 72 h; no unit in table; read-out: Antiproliferative activity IC50
# Description: as §2
# [17] = system: TMD-8; assay: Cell viability CCK8; assay type: cell-based; details: Homo sapiens, TMD8; TMD-8, 72 h; no unit in table; read-out: Antiproliferative activity IC50
# Description: as §2
# [18] = system: AMO1; assay: Cell viability CCK8; assay type: cell-based; details: Homo sapiens; AMO1, 72 h; no unit in table; read-out: Antiproliferative activity IC50
# Description: as §2
# [19] = system: RL; assay: Cell viability CCK8; assay type: cell-based; details: Homo sapiens, 72 h, no unit in table, read-out: Antiproliferative activity IC50
# Description: as §2
# [20] = system: MM1S; assay: Cell viability CCK8; assay type: cell-based; details: Homo sapiens, MM1.S, 72 h, no unit in table (b9: nM), read-out: Antiproliferative activity IC50
# Description: as §2
# [21] = system: KMS-11; assay: Cell viability CCK8; assay type: cell-based; details: Homo sapiens; KMS-11, 72 h; no unit in table; read-out: Antiproliferative activity IC50
# Description: as §2
# [22] = system: RPMI-8226; assay: Cell viability CCK8; assay type: cell-based; details: Homo sapiens; RPMI-8226, 72 h; no unit in table; read-out: Antiproliferative activity IC50
# Description: as §2
# [23] = system: RPMI-8226R; assay: Cell viability CCK8; assay type: cell-based; details: Homo sapiens, 72 h, no unit in table, read-out: Antiproliferative activity IC50
# Description: as §2
# [24] = system: ARD; assay: Cell viability CCK8; assay type: cell-based; details: Homo sapiens, 72 h, no unit in table, read-out: Antiproliferative activity IC50
# Description: as §2
# [25] = system: NKYS; assay: Cell viability CCK8; assay type: cell-based; details: Homo sapiens, 72 h, no unit in table, read-out: Antiproliferative activity IC50
# Description: as §2
# [26] = system: SUDHL-4; assay: Cell viability CCK8; assay type: cell-based; details: Homo sapiens, SU-DHL-4; SUDHL-4, 72 h; no unit in table; read-out: Antiproliferative activity IC50
# Description: as §2
# [27] = system: MM1R; assay: Cell viability CCK8; assay type: cell-based; details: Homo sapiens, MM.1R, 72 h, no unit in table, read-out: Antiproliferative activity IC50
# Description: as §2
# [28] = system: Raji; assay: Cell viability CCK8; assay type: cell-based; details: Homo sapiens, 72 h, no unit in table, read-out: Antiproliferative activity IC50
# Description: as §2
# [29] = system: Ramos; assay: Cell viability CCK8; assay type: cell-based; details: Homo sapiens, 72 h, no unit in table, read-out: Antiproliferative activity IC50
# Description: as §2
# [30] = system: human double-hit lymphoma SUDHL-6; assay: SUDHL-6 subcutaneous tumor model; assay type: in vivo, NOD/SCID mice; details: positive control groups
# [31] = positive controls and combinations (PM 5 mg/kg in combinations)
compound,measurement,setting,value
CN(Cc1nc2c(N3CCOCC3)nc(-c3ccc(N)cc3)nc2n1C)c1ncc(C(N)=O)cn1 [M474],share of plasma AUC0-96h,[1]; female rats,13.75%
same,"amount in bile, % of administered dose",[1]; females,1.16% to 3.30
same,"amount in feces, % of administered dose",[1]; females,0.79% to 5.53
same,"amount in urine, % of administered dose",[1]; females,0.43% to 0.87
same,share of plasma AUC0-96h,[1]; male rats,13.79%
same,"amount in bile, % of administered dose",[1]; males,0.97% to 4.38
same,"amount in feces, % of administered dose",[1]; males,1.27% to 6.00
same,"amount in urine, % of administered dose",[1]; males,1.02% to 1.92
CN(Cc1nc2c(N3CCOCC3)nc(-c3ccc(N)cc3)nc2n1C)c1ncc(C(=O)O)cn1 [M475],share of plasma AUC0-96h,[1]; female rats,4.71% to 9.05
same,share of plasma AUC0-96h,[1]; male rats,4.85% to 6.67
CC(=O)Nc1ccc(-c2nc(N3CCOCC3)c3nc(CN(C)c4ncc(C(N)=O)cn4)n(C)c3n2)cc1 [M516],share of plasma AUC0-96h,[1]; female rats,15.61%
same,"amount in bile, % of administered dose",[1]; females,5.77% to 7.49
same,"amount in feces, % of administered dose",[1]; females,30.10%
same,"amount in urine, % of administered dose",[1]; females,2.35% to 2.49
same,share of plasma AUC0-96h,[1]; male rats,17.42%
same,"amount in bile, % of administered dose",[1]; males,4.75% to 8.74
same,"amount in feces, % of administered dose",[1]; males,27.70%
same,"amount in urine, % of administered dose",[1]; males,0.88% to 3.01
CC(=O)Nc1ccc(-c2nc(N3CCOCC3)c3nc(CN(C)c4ncc(C(=O)O)cn4)n(C)c3n2)cc1 [M517],"amount in bile, % of administered dose",[1]; females,1.16% to 3.30
same,"amount in feces, % of administered dose",[1]; females,0.79% to 5.53
same,"amount in bile, % of administered dose",[1]; males,0.97% to 4.38
same,"amount in feces, % of administered dose",[1]; males,1.27% to 6.00
CC(=O)Nc1ccc(-c2nc(N3CCOCC3)c3nc(CN(C)c4ncc(C(=O)NO)cn4)n(C)c3n2)cc1 [M532],share of plasma AUC0-96h,[1]; female rats,4.71% to 9.05
same,"amount in urine, % of administered dose",[1]; females,0.43% to 0.87
same,share of plasma AUC0-96h,[1]; male rats,4.85% to 6.67
same,"amount in urine, % of administered dose",[1]; males,1.02% to 1.92
CONC(=O)c1cnc(N(C)Cc2nc3c(N4CCOCC4)nc(-c4ccc(NC(C)=O)cc4)nc3n2C)nc1 [M546],share of plasma AUC0-96h,[1]; female rats,4.71% to 9.05
same,"amount in bile, % of administered dose",[1]; females,1.16% to 3.30
same,"amount in feces, % of administered dose",[1]; females,0.79% to 5.53
same,share of plasma AUC0-96h,[1]; male rats,4.85% to 6.67
same,"amount in bile, % of administered dose",[1]; males,0.97% to 4.38
same,"amount in feces, % of administered dose",[1]; males,1.27% to 6.00
CN(Cc1nc2c(N3CCOCC3)nc(-c3ccc(N)cc3)nc2n1C)c1ncc(C(=O)NO)cn1 [Purinostat],inhibitory activity against 89 kinases,[2],no significant inhibitory activity
O=C(/C=C/c1cccc(S(=O)(=O)Nc2ccccc2)c1)NO [belinostat],ORR in r/r DLBCL,[3]; SWOG S0520,10.5%
"Cc1[nH]c2ccccc2c1CCNCc1ccc(/C=C/C(=O)NO)cc1 [panobinostat, reference compound]",IC50,[4],2.7 to 531 nM
same,tumor inhibition rate,[5]; 10 mg/kg i.v. three times a week,49.37%
same,relative tumor growth rate T/C,[5]; positive control groups,45.1%
same,tumor inhibition rate,"[5]; positive control groups, regimens per Table S9",49.37%
same,median survival time,"[5]; satellite group, positive control",26.5 days
same,IC50,[6],2.1 to 277 nM
same,median survival time,[7],17 days
same,T/C,[8]; [31],35.1%
same,tumor inhibition rate,[8]; [31],59.79%
same,median survival time,"[8]; satellite groups, PM 5 mg/kg alone or combined, control regimens",52.5 days
same,median survival time,[9],20 days
same,IC50,[10],3500 nM
same,"response, monotherapy in r/r MM",[11]; phase II,1 PR and 1 MR in 38 patients
same,apoptosis,[12],20.49%
same,apoptosis,[13]; patient A,54.5%
same,apoptosis,[13]; patient B,40.1%
same,IC50,[14],4.4 ± 0.27 nM
same,IC50,[15],6.99 ± 3.9 nM
same,IC50,[16],4.03 ± 0.2 nM
same,IC50,[17],9.12 ± 0.25 nM
same,IC50,[18],3.45 ± 0.5 nM
same,IC50,[19],6.43 ± 0.45 nM
same,IC50,[20],2.87 ± 0.12 nM
same,IC50,[21],7.94 ± 0.59 nM
same,IC50,[22],9.3 ± 0.55 nM
same,IC50,[23],5.56 ± 0.49 nM
same,IC50,[24],1.82 ± 0.16 nM
same,IC50,[25],4.81 ± 0.14 nM
same,IC50,[26],6.72 ± 0.49 nM
same,IC50,[27],0.87 ± 0.01 nM
same,IC50,[28],5.48 ± 4.81 nM
same,IC50,[29],5 ± 0.53 nM
same,T/C,[30],92.55±13.13%
same,tumor inhibition rate,[30],12.92%
C/C=C1\NC(=O)[C@H]2CSSCC/C=C/[C@H](CC(=O)N[C@H](C(C)C)C(=O)N2)OC(=O)[C@H](C(C)C)NC1=O [romidepsin],"response, monotherapy in r/r MM",[11]; phase II,4/12 patients SD
O=C(CCCCCCC(=O)Nc1ccccc1)NO [vorinostat],ORR in r/r DLBCL,[3],6%
same,"response, monotherapy in r/r MM",[11]; phase I,1 MR in 10 patients

# Reference: article PMC12198407, “Preclinical and first-in-human of purinostat mesylate, a novel selective HDAC I/IIb inhibitor, in relapsed/refractory multiple myeloma and lymphoma” (Signal Transduction and Targeted Therapy, 2025)
